The test system of experiment [1] is KYSE-70 esophageal cancer cell line. Briefly: Cell growth inhibition of KYSE-70 (Sulforhodamine B). The format is cell-based. Particulars: Homo sapiens; KYSE-70, 72 hours; read-out: KYSE70 GI50. In short, it runs like this: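 KYSE-70 cells (YES1-amplified) in RPMI-1640 with 10% FBS were seeded 24 h before treatment with compound at 0.0046–10 µM final. After 72 h, cells were TCA-fixed and stained with sulforhodamine B, with absorbance read at 510 nm. GI50 was derived with a time-zero plate set to 0% and the vehicle control to 100%, in duplicate tests.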

Experiment [2] addresses YES1 kinase (Homo sapiens, UniProt P07947). Briefly: YES1 kinase inhibition, ADP Glo assay (Promega). Format: biochemical. The note with it: for inhibition at 0.01 µM: compound 10 nM, read-out: YES1 enzyme, % inhibition, 10 nM; for inhibition at 0.1 µM: compound 100 nM, read-out: YES1 enzyme, % inhibition, 100 nM; for IC50: class symbols, read-out: YES1 enzyme, IC50; for YES1 kinase inhibition at 1 nM (in words) / inhibition at 0.001 µM: compound 1 nM; for inhibition at 0.001 µM: read-out: YES1 enzyme, % inhibition, 1 nM. In short, it runs like this:
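YES1 kinase was preincubated 10 min with compound in Mn2+/DTT-containing kinase buffer, then reacted 40 min at room temperature with ATP/substrate; ADP was detected by ADP-Glo luminescence. Activity, background-subtracted and normalised to negative control, is given as % inhibition at 1, 10 and 100 nM, plus IC50.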
Background: ADP-Glo turns the ADP formed in a reaction into a luminescent signal.

Sequence of YES1 kinase (P07947 whole entry): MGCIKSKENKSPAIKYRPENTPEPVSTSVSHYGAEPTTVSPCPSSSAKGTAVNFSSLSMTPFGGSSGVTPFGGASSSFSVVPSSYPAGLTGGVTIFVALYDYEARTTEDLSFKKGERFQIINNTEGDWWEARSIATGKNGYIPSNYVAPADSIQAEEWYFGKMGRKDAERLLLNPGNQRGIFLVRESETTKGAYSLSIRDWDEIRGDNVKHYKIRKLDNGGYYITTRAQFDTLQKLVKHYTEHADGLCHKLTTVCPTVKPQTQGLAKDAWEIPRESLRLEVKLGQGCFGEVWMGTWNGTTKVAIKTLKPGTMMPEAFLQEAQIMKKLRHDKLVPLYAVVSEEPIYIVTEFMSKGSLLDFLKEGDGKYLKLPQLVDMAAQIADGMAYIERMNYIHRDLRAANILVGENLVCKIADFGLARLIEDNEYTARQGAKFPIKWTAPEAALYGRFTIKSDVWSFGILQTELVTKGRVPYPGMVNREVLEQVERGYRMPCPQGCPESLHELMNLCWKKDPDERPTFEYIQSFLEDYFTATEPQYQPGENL

A word on the GI50: it is the concentration at which growth is held to half of that of the control. In general, inhibition refers to the percentage by which the read-out fell short of the control. Regarding `COc1cc(-c2cc(N3CC[C@@H](N(C)C)C3)n3ncnc(N)c23)ccc1NC(=O)OC(C)(C)C` [Example 10, tert-butyl (R)-(4-(4-amino-7-(3-(dimethylamino)pyrrolidin-1-yl)pyrrolo[2,1-f][1,2,4]triazin-5-yl)-2-methoxyphenyl)carbamate], the GI50 in experiment [1] lay in the range of 1000 to 10000 nM. Besides, in experiment [2], the inhibition at 0.01 µM was found to be 8% and the inhibition at 0.1 µM was 38%.

Turning to `COc1cc(-c2cc(N3CCN(CCN(C)C)CC3)n3ncnc(N)c23)ccc1NC(=O)OC(C)(C)C` [Example 28, tert-butyl (4-(4-amino-7-(4-(2-(dimethylamino)ethyl)piperazin-1-yl)pyrrolo[2,1-f][1,2,4]triazin-5-yl)-2-methoxyphenyl)carbamate], in experiment [1], the concentration for 50% growth inhibition (GI50) lay within 1000 to 10000 nM. Also, in experiment [2], the inhibition at 0.01 µM amounted to 41% and the inhibition at 0.1 µM came to 85%.

Turning to `COc1cc(-c2cc(N3CCC4(CCCN4C)CC3)n3ncnc(N)c23)ccc1NC(=O)OC(C)(C)C` [Example 24, tert-butyl (4-(4-amino-7-(1-methyl-1,8-diazaspiro[4.5]decan-8-yl)pyrrolo[2,1-f][1,2,4]triazin-5-yl)-2-methoxyphenyl)carbamate], the concentration for 50% growth inhibition (GI50) in experiment [1] was 100 to 1000 nM. Moreover, in experiment [2], the inhibition at 0.01 µM stood at 50% and the inhibition at 0.1 µM came to 82%.

A word on the IC50: it is the midpoint of a concentration-inhibition curve. In the case of `COc1cc(-c2cc(N3CCC(N)CC3)n3ncnc(N)c23)ccc1NC(=O)c1ccoc1` [Example 138, N-(4-(4-amino-7-(4-aminopiperidin-1-yl)pyrrolo[2,1-f][1,2,4]triazin-5-yl)-2-methoxyphenyl)furan-3-carboxamide], in experiment [1], the GI50 was above 10000 nM. Also, in experiment [2], the IC50 is at most 100 nM.

Consider `CCN(CC)C1CCN(c2cc(-c3ccc(NC(=O)OC(C)(C)C)c(OC)c3)c3c(N)ncnn23)CC1` [Example 14, tert-butyl (4-(4-amino-7-(4-(diethylamino)piperidin-1-yl)pyrrolo[2,1-f][1,2,4]triazin-5-yl)-2-methoxyphenyl)carbamate], for which the GI50 in experiment [1] is 100 to 1000 nM. Moreover, in experiment [2], the inhibition at 0.01 µM came out at 19% and the inhibition at 0.1 µM amounted to 77%.

`COc1cc(-c2cc(N3CC4(CC(N(C)C)C4)C3)n3ncnc(N)c23)ccc1NC(=O)OC(C)(C)C` [Example 18, tert-butyl (4-(4-amino-7-(6-(dimethylamino)-2-azaspiro[3.3]heptan-2-yl)pyrrolo[2,1-f][1,2,4]triazin-5-yl)-2-methoxyphenyl)carbamate]: in experiment [1], the GI50 is 100 to 1000 nM. In experiment [2], the inhibition at 0.01 µM stood at 39% and the inhibition at 0.1 µM was 81%.

Turning to `COc1cc(-c2cc(N3CCN(C4CC4)CC3)n3ncnc(N)c23)ccc1NC(=O)OC(C)(C)C` [Example 17, tert-butyl (4-(4-amino-7-(4-cyclopropylpiperazin-1-yl)pyrrolo[2,1-f][1,2,4]triazin-5-yl)-2-methoxyphenyl)carbamate], the GI50 in experiment [1] was 1000 to 10000 nM. Besides, in experiment [2], the inhibition at 0.01 µM is 53% and the inhibition at 0.1 µM came out at 59%.

On to `COc1cc(-c2cc(N3CCC(C)(CN)CC3)n3ncnc(N)c23)ccc1NC(=O)OC(C)(C)C` [Example 123, tert-butyl (4-(4-amino-7-(4-(aminomethyl)-4-methylpiperidin-1-yl)pyrrolo[2,1-f][1,2,4]triazin-5-yl)-2-methoxyphenyl)carbamate], for which, in experiment [1], the GI50 was at most 100 nM. In experiment [2], the half-maximal inhibitory concentration (IC50) was at most 100 nM.

Consider `COc1cc(-c2cc(N3CC4CC(C3)C4N)n3ncnc(N)c23)ccc1NC(=O)OC(C)(C)C` (stereo not drawn) [Example 93, tert-butyl (4-(4-amino-7-(6-amino-3-azabicyclo[3.1.1]heptan-3-yl)pyrrolo[2,1-f][1,2,4]triazin-5-yl)-2-methoxyphenyl)carbamate], for which the GI50 in experiment [1] fell in the range of 100 to 1000 nM. Besides, in experiment [2], the inhibition at 0.01 µM amounted to 14% and the inhibition at 0.1 µM turned out to be 48%.

With `COc1cc(-c2cc(N3CCC(N(C)C)CC3)n3ncnc(N)c23)ccc1NC(=O)OC(C)(C)C` [Example 15, tert-butyl (4-(4-amino-7-(4-(dimethylamino)piperidin-1-yl)pyrrolo[2,1-f][1,2,4]triazin-5-yl)-2-methoxyphenyl)carbamate], the GI50 in experiment [1] was at most 100 nM. In experiment [2], the inhibition at 0.01 µM amounted to 67% and the inhibition at 0.1 µM was 88%.

Regarding `COc1cc(-c2cc(CCN3CCC(N)CC3)n3ncnc(N)c23)ccc1NC(=O)OC(C)(C)C` [Example 100, tert-butyl (4-(4-amino-7-(2-(4-aminopiperidin-1-yl)ethyl)pyrrolo[2,1-f][1,2,4]triazin-5-yl)-2-methoxyphenyl)carbamate], in experiment [1], the GI50 was at most 100 nM. For the same compound, in experiment [2], the inhibition at 0.01 µM amounted to 70% and the inhibition at 0.1 µM is 88%.

Regarding `COc1cc(-c2cc(N3CCC(O)CC3)n3ncnc(N)c23)ccc1NC(=O)OC(C)(C)C` [Example 90, tert-butyl (4-(4-amino-7-(4-hydroxypiperidin-1-yl)pyrrolo[2,1-f][1,2,4]triazin-5-yl)-2-methoxyphenyl)carbamate], the 50% growth inhibitory concentration (GI50) in experiment [1] lay within 100 to 1000 nM. For the same compound, in experiment [2], the “YES1 kinase inhibition at 1 nM (in words)” value is “could be inhibited even at a low concentration of 1 nM”, the inhibition at 0.001 µM worked out at 12% and the inhibition at 0.01 µM came out at 47%.

Take `COc1cc(-c2cc(N[C@H]3CC[C@@H](N)CC3)n3ncnc(N)c23)ccc1NC(=O)OC(C)(C)C` [Example 121, tert-butyl (4-(4-amino-7-(((1s,4s)-4-aminocyclohexyl)amino)pyrrolo[2,1-f][1,2,4]triazin-5-yl)-2-methoxyphenyl)carbamate]: the concentration for 50% growth inhibition (GI50) in experiment [1] is 100 to 1000 nM. Moreover, in experiment [2], the inhibition at 0.01 µM came out at 50% and the inhibition at 0.1 µM was 77%.

Turning to `COc1cc(-c2cc(N3CCC4(CN(C)C4)C3)n3ncnc(N)c23)ccc1NC(=O)OC(C)(C)C` [Example 37, tert-butyl (4-(4-amino-7-(2-methyl-2,6-diazaspiro[3.4]octan-6-yl)pyrrolo[2,1-f][1,2,4]triazin-5-yl)-2-methoxyphenyl)carbamate], the concentration for 50% growth inhibition (GI50) in experiment [1] was in the range of 100 to 1000 nM. Further, in experiment [2], the inhibition at 0.01 µM was 24% and the inhibition at 0.1 µM is 69%.

Turning to `CNCCC1CCN(c2cc(-c3ccc(NC(=O)OC(C)(C)C)c(OC)c3)c3c(N)ncnn23)CC1` [Example 108, tert-butyl (4-(4-amino-7-(4-(2-(methylamino)ethyl)piperidin-1-yl)pyrrolo[2,1-f][1,2,4]triazin-5-yl)-2-methoxyphenyl)carbamate], in experiment [1], the GI50 is at most 100 nM. Also, in experiment [2], the IC50 is at most 100 nM, the inhibition at 0.001 µM came to 38% and the inhibition at 0.01 µM is 52%.

For the compound `COc1cc(-c2cc(N3C[C@@H]4[C@H](C3)[C@H]4N(C)C)n3ncnc(N)c23)ccc1NC(=O)OC(C)(C)C` [Example 42, tert-butyl (4-(4-amino-7-((1R,5S,6s)-6-(dimethylamino)-3-azabicyclo[3.1.0]hexan-3-yl)pyrrolo[2,1-f][1,2,4]triazin-5-yl)-2-methoxyphenyl)carbamate], the concentration for 50% growth inhibition (GI50) in experiment [1] is at most 100 nM. For the same compound, in experiment [2], the inhibition at 0.01 µM was determined as 63% and the inhibition at 0.1 µM came to 90%.

Take `COc1cc(-c2cc(-c3ccc4c(c3)OCC(=O)N4C)n3ncnc(N)c23)ccc1NC(=O)OC(C)(C)C` [Example 8, tert-butyl (4-(4-amino-7-(4-methyl-3-oxo-3,4-dihydro-2H-benzo[b][1,4]oxazin-7-yl)pyrrolo[2,1-f][1,2,4]triazin-5-yl)-2-methoxyphenyl)carbamate]: the GI50 in experiment [1] was above 10000 nM. In experiment [2], the inhibition at 0.01 µM amounted to 33% and the inhibition at 0.1 µM is 64%.

Consider `COc1cc(-c2cc(N[C@H]3CC[C@H](N)C3)n3ncnc(N)c23)ccc1NC(=O)OC(C)(C)C` [Example 116, tert-butyl (4-(4-amino-7-(((1S,3S)-3-aminocyclopentyl)amino)pyrrolo[2,1-f][1,2,4]triazin-5-yl)-2-methoxyphenyl)carbamate], for which the GI50 in experiment [1] was in the range of 100 to 1000 nM. Moreover, in experiment [2], the “YES1 kinase inhibition at 1 nM (in words)” value is recorded as “could be inhibited even at a low concentration of 1 nM”, the inhibition at 0.001 µM came out at 30% and the inhibition at 0.01 µM worked out at 63%.

For the compound `COc1cc(-c2cc(CCN3CCC(N(C)C)CC3)n3ncnc(N)c23)ccc1NC(=O)OC(C)(C)C` [Example 98, tert-butyl (4-(4-amino-7-(2-(4-(dimethylamino)piperidin-1-yl)ethyl)pyrrolo[2,1-f][1,2,4]triazin-5-yl)-2-methoxyphenyl)carbamate], the GI50 in experiment [1] was at most 100 nM. Besides, in experiment [2], the inhibition at 0.01 µM was found to be 65% and the inhibition at 0.1 µM is 90%.

As for `COc1cc(-c2cc(-c3ccc(N(C)C)cc3C)n3ncnc(N)c23)ccc1NC(=O)OC(C)(C)C` [Example 2, tert-butyl (4-(4-amino-7-(4-(dimethylamino)-2-methylphenyl)pyrrolo[2,1-f][1,2,4]triazin-5-yl)-2-methoxyphenyl)carbamate], the concentration for 50% growth inhibition (GI50) in experiment [1] was above 10000 nM. In experiment [2], the inhibition at 0.01 µM stood at 21% and the inhibition at 0.1 µM is 28%.

In the case of `CNC1(C)CCN(c2cc(-c3ccc(NC(=O)OC(C)(C)C)c(OC)c3)c3c(N)ncnn23)CC1` [Example 105, tert-butyl (4-(4-amino-7-(4-methyl-4-(methylamino)piperidin-1-yl)pyrrolo[2,1-f][1,2,4]triazin-5-yl)-2-methoxyphenyl)carbamate], the GI50 in experiment [1] is at most 100 nM. The half-inhibitory concentration (IC50) in experiment [2] is at most 100 nM.

Source of the values: patent US20260297095A1, “NOVEL PYRROLOTRIAZINE DERIVATIVE AND USE THEREOF” (Pelemed Co., Ltd., priority 2024, published 2026).
